Assay [1] has as its system rat Nav1.7. The settings on record: cited from earlier work.
Assay [2] relates to Nav1.3. The settings on record: read-out: IC50 Nav1.3; cited from earlier work.
The test system of assay [3] is Nav1.1. The settings on record: read-out: IC50 Nav1.1; cited from earlier work.
Assay [4] has as its target hNav1.3 (Homo sapiens, UniProt Q9NY46). The class given is cell-based. The settings on record: inactivated-state Peak 2.
The subject of assay [5] is rNav1.4. The settings on record: rNav1.4 in Xenopus oocytes; cited from earlier work.
Assay [6] concerns endogenous TTX-S currents in ND7-23 cells. As to the kind of experiment: cells. It is filed as cell-based, rodent. The following applies: for effect on resting- or inactivated-state TTX-S currents: 300 nM.
Assay [7] has as its system mNav1.6. The settings on record: mNav1.6 in Xenopus oocytes; cited from earlier work.
Assay [8] deals with hNav1.5. The settings on record: hNav1.5 on QPatch; cited from earlier work. A general note: In patch-clamp work, channel activity is measured electrically.
The target of assay [9] is hNav1.7 (Homo sapiens, UniProt Q15858). The settings on record: hNav1.7 in Xenopus oocytes; cited from earlier work.

pIC50: −log10 of the molar value. Where “and” joins values, the source holds several entries; their conditions need not be identical. Equal entries are not always repeated. Entries after “also recorded” stand apart in the source; their conditions may differ. Where two headings read alike, the source gives them in different places.

hNav1.7, sequence (Q15858 whole entry): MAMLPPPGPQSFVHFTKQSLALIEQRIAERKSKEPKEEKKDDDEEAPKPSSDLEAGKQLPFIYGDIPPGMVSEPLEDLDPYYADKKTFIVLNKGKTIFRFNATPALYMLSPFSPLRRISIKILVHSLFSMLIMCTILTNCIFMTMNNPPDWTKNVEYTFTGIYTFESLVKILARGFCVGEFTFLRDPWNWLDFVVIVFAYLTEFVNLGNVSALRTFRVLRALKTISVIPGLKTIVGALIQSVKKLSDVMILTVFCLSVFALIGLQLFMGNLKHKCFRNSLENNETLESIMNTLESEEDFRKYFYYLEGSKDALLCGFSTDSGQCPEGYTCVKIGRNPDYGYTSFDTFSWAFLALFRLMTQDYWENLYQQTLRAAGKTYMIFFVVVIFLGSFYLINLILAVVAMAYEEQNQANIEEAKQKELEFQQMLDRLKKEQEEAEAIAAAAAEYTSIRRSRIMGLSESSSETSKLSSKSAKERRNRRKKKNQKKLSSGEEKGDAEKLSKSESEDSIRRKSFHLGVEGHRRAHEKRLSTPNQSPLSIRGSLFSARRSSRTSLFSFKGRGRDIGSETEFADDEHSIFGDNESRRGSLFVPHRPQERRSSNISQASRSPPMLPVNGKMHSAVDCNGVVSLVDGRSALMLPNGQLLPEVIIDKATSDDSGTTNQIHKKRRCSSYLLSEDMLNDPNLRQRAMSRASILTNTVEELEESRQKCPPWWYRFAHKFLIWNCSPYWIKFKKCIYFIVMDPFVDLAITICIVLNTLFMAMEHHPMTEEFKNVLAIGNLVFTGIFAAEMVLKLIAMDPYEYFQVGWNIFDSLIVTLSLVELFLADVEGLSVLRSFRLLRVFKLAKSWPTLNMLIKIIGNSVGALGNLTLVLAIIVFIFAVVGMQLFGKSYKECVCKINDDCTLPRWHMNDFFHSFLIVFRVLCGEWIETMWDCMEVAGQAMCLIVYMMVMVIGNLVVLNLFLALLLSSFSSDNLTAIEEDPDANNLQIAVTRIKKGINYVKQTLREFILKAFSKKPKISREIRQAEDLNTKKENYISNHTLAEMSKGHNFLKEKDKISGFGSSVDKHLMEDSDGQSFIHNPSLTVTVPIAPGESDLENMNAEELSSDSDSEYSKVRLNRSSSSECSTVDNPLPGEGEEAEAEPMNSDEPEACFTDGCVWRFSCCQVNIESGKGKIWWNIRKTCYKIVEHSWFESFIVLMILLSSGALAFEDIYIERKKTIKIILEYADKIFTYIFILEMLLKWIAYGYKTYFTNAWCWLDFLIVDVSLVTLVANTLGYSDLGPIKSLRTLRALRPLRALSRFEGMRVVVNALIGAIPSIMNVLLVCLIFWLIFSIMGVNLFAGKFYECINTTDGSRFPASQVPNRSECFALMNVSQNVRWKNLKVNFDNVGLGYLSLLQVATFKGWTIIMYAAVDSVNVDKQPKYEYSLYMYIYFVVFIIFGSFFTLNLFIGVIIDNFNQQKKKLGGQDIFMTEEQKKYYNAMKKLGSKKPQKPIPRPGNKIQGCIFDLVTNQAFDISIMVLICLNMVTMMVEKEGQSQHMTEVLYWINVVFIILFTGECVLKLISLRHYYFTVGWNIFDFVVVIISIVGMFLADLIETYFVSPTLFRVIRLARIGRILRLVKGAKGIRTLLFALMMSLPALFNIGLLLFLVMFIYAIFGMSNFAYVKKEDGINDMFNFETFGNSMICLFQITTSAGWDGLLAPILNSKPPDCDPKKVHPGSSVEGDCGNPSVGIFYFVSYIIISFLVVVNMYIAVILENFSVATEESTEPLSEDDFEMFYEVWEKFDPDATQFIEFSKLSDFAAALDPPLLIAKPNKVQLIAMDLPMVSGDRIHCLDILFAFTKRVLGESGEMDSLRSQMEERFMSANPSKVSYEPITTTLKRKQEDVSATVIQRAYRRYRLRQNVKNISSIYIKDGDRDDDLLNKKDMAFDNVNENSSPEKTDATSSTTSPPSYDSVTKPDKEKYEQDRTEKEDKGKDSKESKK
hNav1.3, sequence (Q9NY46 whole entry): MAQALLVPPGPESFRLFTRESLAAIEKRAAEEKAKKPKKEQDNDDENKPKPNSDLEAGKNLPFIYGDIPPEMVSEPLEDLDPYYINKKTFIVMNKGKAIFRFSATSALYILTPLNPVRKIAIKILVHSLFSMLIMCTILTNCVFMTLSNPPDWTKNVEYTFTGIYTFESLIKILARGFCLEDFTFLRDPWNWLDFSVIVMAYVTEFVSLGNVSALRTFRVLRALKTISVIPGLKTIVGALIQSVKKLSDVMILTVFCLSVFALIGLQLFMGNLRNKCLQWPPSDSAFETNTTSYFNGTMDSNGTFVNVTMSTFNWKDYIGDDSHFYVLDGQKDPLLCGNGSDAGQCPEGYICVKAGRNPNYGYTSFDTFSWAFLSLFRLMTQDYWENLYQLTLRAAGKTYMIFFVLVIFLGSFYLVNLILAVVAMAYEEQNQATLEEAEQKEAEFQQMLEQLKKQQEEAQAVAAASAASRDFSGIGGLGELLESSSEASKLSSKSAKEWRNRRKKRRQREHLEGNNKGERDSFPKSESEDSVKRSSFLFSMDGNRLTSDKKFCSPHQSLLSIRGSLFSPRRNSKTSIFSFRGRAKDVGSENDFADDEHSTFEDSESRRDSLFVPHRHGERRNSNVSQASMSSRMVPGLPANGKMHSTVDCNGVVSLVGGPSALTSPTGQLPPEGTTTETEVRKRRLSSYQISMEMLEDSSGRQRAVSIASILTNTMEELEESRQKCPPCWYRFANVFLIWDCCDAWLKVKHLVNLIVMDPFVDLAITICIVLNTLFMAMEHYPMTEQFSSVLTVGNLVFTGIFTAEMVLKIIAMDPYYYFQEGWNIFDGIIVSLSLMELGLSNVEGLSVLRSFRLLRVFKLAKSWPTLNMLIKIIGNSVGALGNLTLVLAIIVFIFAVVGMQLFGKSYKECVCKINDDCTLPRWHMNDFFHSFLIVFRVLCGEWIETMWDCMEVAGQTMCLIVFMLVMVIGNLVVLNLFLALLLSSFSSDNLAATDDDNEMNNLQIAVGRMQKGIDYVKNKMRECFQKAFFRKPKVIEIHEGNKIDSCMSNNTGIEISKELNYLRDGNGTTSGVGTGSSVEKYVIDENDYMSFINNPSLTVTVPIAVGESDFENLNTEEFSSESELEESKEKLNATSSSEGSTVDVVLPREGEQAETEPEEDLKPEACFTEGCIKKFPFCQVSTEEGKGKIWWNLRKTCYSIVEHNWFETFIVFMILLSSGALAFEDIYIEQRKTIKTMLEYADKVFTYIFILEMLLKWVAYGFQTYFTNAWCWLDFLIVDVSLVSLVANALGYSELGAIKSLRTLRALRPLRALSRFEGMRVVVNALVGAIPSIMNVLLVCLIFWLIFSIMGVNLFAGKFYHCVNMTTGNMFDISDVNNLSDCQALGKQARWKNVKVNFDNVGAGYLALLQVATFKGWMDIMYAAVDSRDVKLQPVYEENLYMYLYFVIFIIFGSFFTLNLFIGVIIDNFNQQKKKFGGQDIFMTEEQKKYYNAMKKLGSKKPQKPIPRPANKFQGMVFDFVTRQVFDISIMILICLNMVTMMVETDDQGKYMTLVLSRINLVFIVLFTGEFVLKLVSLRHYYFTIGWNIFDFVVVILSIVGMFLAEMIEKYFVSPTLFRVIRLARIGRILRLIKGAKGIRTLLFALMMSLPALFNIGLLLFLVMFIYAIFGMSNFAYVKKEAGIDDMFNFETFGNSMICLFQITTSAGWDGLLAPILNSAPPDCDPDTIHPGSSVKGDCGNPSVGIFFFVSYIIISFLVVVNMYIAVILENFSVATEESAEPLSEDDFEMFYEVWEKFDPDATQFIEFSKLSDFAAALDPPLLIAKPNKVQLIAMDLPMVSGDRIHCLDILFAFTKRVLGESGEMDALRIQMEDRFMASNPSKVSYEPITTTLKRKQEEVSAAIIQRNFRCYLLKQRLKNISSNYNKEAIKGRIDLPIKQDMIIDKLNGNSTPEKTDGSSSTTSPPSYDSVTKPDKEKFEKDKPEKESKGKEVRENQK

In the case of `O=C(Nc1ccc(S(=O)(=O)Nc2nccs2)cc1)C(c1ccccc1)c1ccccc1` [ICA-121431], in [1], the “potency against rat Nav1.7 channels” value is recorded as “low nanomolar potency”. For the same compound, the pIC50 in [2] and in assay [3] was approximately 7.70 each time.

On to `O=C(Nc1ccc(S(=O)(=O)Nc2nccs2)cc1)[C@@H]1C[C@H]1c1ccccc1` [Icagen compound 68, (1R,2R)-2-phenyl-N-(4-(N-(thiazol-2-yl)sulfamoyl)phenyl)cyclopropane-1-carboxamide], for which the “hillslope, Peak 2” value in assay [4] came out at 1.2. For the same compound, the “effects on resting or inactivated current amplitudes” value in assay [5], in assay [7], in assay [8] and in [9] was “no significant effects” throughout. Besides, the “effect on resting- or inactivated-state TTX-S currents” value is on record as “no effect; also recorded: negligible effects” in assay [6] and “no significant effect” in assay [6] (listed as Icagen Nav1.3 antagonist). In [6] (1 μM, Peak 1, mean ± SEM), the “reduction of resting-state Peak 1 TTX-S current” value is listed as 0.7% ± 3.0%. The “reduction of inactivated Peak 2 TTX-S current” value in [6] (1 μM, Peak 2, mean ± SEM) is 8.5% ± 1.7% and 8.5%. The inhibition (commonly the change of the read-out against control, counted positive when it falls) at 0.3 µM is 0.8% in assay [6] (ND7/23, read-out: ND7-23 TTX-S % Inhibition, Peak 1); -0.5% in assay [6] (ND7/23, read-out: ND7-23 TTX-S % Inhibition, Peak 2); approximately 0.5% in assay [6] (ND7/23, read-out: inhibition of inward TTX-S currents). In addition, the pIC50 – broadly, the negative decadic logarithm of the IC50, by convention in mol/L – in assay [6] (ND7/23, read-out: ND7-23 TTX-S IC50, Peak 1) is less than 5.00; in assay [6] (ND7/23, read-out: ND7-23 TTX-S IC50, Peak 2), less than 5.00. In [6] (all test concentrations), the “inhibition of TTX-S currents, maximum over all concentrations tested” value was less than 50%.

Values taken from paper PMC4800267 (Assay and Drug Development Technologies, 2016).
